What all share (format): physicochemical
A short description of data set [1]: Stress stability test for solid state transformation. The conditions noted are these: 60° C., 60° C./75% relative humidity and 80° C./75% relative humidity; 4 weeks. As for the experimental part:
Polymorph Form C, Form X and mixtures of the two polymorphic forms C+X have all been tested at different conditions of temperature and relative humidity for signs of solid state transformation. The stress stability test was carried out at three sets of conditions: 60° C., 60° C./75% relative humidity and 80° C./75% relative humidity, and samples were analyzed after 1, 2 and 4 weeks, ie. after 7, 14 and 28 days.
One 1.8 ml amber screw top vial (27267-U, Supelco) containing between 50 and 100 mg {4-[(1R,3S)-3-((R)-1-Naphthalen-1-yl-ethylamino)-cyclopentyl]-phenoxy}-acetic acid was tested per individual set of conditions. The vials to be tested at 60° C. were closed with a PTFE lined black polypropylene solid cap (27416, Supelco) and placed in a thermostated heating cabinet. The vials to be tested at 60° C./75% relative humidity and 80° C./75% relative humidity were placed uncapped in a desiccator containing a saturated NaCl solution. The desiccator was subsequently placed in a thermostated heating cabinet.
The samples were analyzed at 1, 2 and 4 weeks for • 1. Visual appearance • 2. HPLC assay and impurities • 3. Polymorph characterization

The nature of data set [2]: Competitive slurrying experiments (XRPD follow-up). The following applies: for Polymorphic stability/conversion in competitive slurrying: MeOH suspension 30 mg/mL, 14 days, 5° C., room temperature and reflux (65° C.). As for the experimental part: The suspensions at 5° C. and r.t. were prepared in 4 mL vials with caps and equipped with a small magnetic stirrer bar. The suspensions were stirred at approximately 500 rpm. for two weeks. The suspensions prepared at high temperature were prepared in 10 mL Erlenmeyer flask equipped with a magnetic stirrer bar and reflux condenser.
Samples of the suspensions were taken at time=0, 1 day, 7 days and 14 days and investigated by XRPD.

Data set [3] is described as follows: Aqueous solubility as a function of pH. The following applies: room temperature, conclusion from Table 6. As for the experimental part:
The aqueous solubility of Form C and Form X was determined as a function of pH at 25° C. in 0.1N HCl (pH 1.0) and in Sorensen phosphate buffers at pH 2.0, 4.0, 6.0 and 8.0. For each pH value two individual determinations were made. Form C or Form X was weighed out (11 mg for pH 1, 4 mg for pH 2-8) in scintillation vials and 4 ml 0.1N HCl or buffer was added. The vials were shaken for 24 hours at 25° C. After 24 hours it was checked that the vial still contained undissolved material. The suspensions were filtered through a 0.45 μm filter, which was first saturated with app. 0.5 ml filtrate. The resulting filtrates were diluted and analyzed by HPLC vs. a standard curve.

A short description of data set [4]: Thermo gravimetric analysis (TGA). The following applies: Graph 4a (Form C sample), ±2° C. As for the experimental part: Thermo gravimetric analysis (TGA): TGA experiments were conducted using a Perkin Elmer Pyris 1 TGA instrument. About 10-20 mg of sample was loaded into a ceramic pan for the measurements. The sample temperature was ramped from 25 to 350° C. at 10° C./min. Nitrogen was used as the purge gas at a flow rate of 40 mL/min.

Data set [5] in a line: Transition temperature of the enantiotropic polymorphs from melting enthalpy and melting points. The following applies: estimated from melting enthalpy and melting points of Form C and Form X. As for the experimental part:
From careful measurements of melting enthalpy and melting points of both forms, the transition temperature has been estimated to lie between 120 to 145° C.
Differential scanning calorimetry (DSC): DSC experiments were carried out using a Perkin Elmer DSC8500 system. About 0.5-3 mg of sample was used for the measurements. An aluminium pan was used for the analysis and was sealed by applying pressure by hand and pushing each part of the pan together. The temperature was ramped from −60 to 270° C. at 20° C./min. Nitrogen was used as the purge gas with a flow rate of 20 mL/min.

On to `C[C@@H](NC1CCC(c2ccc(OCC(=O)O)cc2)C1)c1cccc2ccccc12` (stereo in doubt) [Form X, {4-[(1R,3S)-3-((R)-1-Naphthalen-1-yl-ethylamino)-cyclopentyl]-phenoxy}-acetic acid], for which the “4 week stress stability test, solid state transformation” value (“4 week stress stability test” for short) in data set [1] is given as “without any solid state transformation”. The “Polymorphic stability/conversion in competitive slurrying” value (“Polymorphic stability/conversion” for short) in data set [2] is on record as “convert to pure Form C at all three temperatures”. For the same molecule, in data set [2] (competitive slurrying at 110° C.), the “Polymorphic conversion in competitive slurrying” value is given as “transformation of Form X to Form C”. Further, the “Solubility of Form X relative to Form C” value in data set [3] is listed as “higher compared to Form C”.
Take `C[C@@H](NC1CCC(c2ccc(OCC(=O)O)cc2)C1)c1cccc2ccccc12` (stereo in doubt) [{4-[(1R,3S)-3-((R)-1-Naphthalen-1-yl-ethylamino)-cyclopentyl]-phenoxy}-acetic acid]: in data set [1], the “4 week stress stability test” value is recorded as “without any solid state transformation”. Further, the “Polymorphic stability/conversion” value in data set [2] (listed as mixtures of Form X+C) was “convert to pure Form C at all three temperatures”. Besides, in data set [2] (lower bound from competitive slurrying of Form C and Form X), the “Transition temperature at which the two polymorphs are equally stable” value is “above 110 °C”. The “Temperature below which stable towards degradation (TGA trail)” value in data set [4] was “below 255 °C”. For the same molecule, in data set [5], the “Transition temperature (estimated)” value was 120 to 145 °C.
Turning to `C[C@@H](NC1CCC(c2ccc(OCC(=O)O)cc2)C1)c1cccc2ccccc12` (stereo in doubt) [Form C, {4-[(1R,3S)-3-((R)-1-Naphthalen-1-yl-ethylamino)-cyclopentyl]-phenoxy}-acetic acid], the “4 week stress stability test” value in data set [1] is listed as “without any solid state transformation”. Further, the “Polymorphic stability/conversion” value in data set [2] was “stable at all three temperatures”.

(Values after patent publication US9056814B2, “Polymorphic form of a calcimimetic compound” (LEO PHARMA A/S, priority 2010, dated 2015).)
